{
  "source": "patent US20050197350A1",
  "about": "“Novel quinoline, tetrahydroquinazoline, and pyrimidine derivatives and methods of treatment related to the use thereof” (TAISHO PHARMACEUTICAL CO., LTD., priority 2003, published 2005)",
  "data": [
    {"tested_on": "MCH receptors", "test": "MCH receptor activity class (method not given)", "details": "MCH receptor activity class 1-3 (percent of control at 10^-7 M or IC50)", "values": [
      {"molecule": "CN(C)c1ccnc(N[C@H]2CC[C@@H](CNC(=O)Nc3c(Cl)cc(Cl)cc3Cl)CC2)n1", "note": "[compound 2415, N-[(cis-4-{[4-(dimethylamino)pyrimidin-2-yl]amino}cyclohexyl)methyl]-N′-(2,4,6-trichlorophenyl)urea]", "class": "1 (Class 1: The value of percent of control at 10^−7 M was less than 40% or the value of IC50 was less than 50 nM.)"},
      {"molecule": "CN(C)c1ccnc(N[C@H]2CC[C@@H](CNC(=O)Nc3c(F)cc(Br)cc3Br)CC2)n1", "note": "[compound 2417]", "class": "1 (Class 1: The value of percent of control at 10^−7 M was less than 40% or the value of IC50 was less than 50 nM.)"},
      {"molecule": "CCc1cccc(CC)c1NC(=O)NC[C@H]1CC[C@@H](Nc2nccc(N(C)C)n2)CC1", "note": "[compound 2418, N-(2,6-diethylphenyl)-N′-[(cis-4-{[4-(dimethylamino)pyrimidin-2-yl]amino}cyclohexyl)methyl]urea]", "class": "1 (Class 1: The value of percent of control at 10^−7 M was less than 40% or the value of IC50 was less than 50 nM.)"},
      {"molecule": "CN(C)c1ccnc(N[C@H]2CC[C@@H](CNC(=O)Nc3c(Cl)cccc3C(F)(F)F)CC2)n1", "note": "[compound 2419]", "class": "1 (Class 1: The value of percent of control at 10^−7 M was less than 40% or the value of IC50 was less than 50 nM.)"},
      {"molecule": "Cc1cccc(Cl)c1NC(=O)NC[C@H]1CC[C@@H](Nc2nccc(N(C)C)n2)CC1", "note": "[compound 2420, N-(2-chloro-6-methylphenyl)-N′-[(cis-4-{[4-(dimethylamino)pyrimidin-2-yl]amino}cyclohexyl)methyl]urea]", "class": "1 (Class 1: The value of percent of control at 10^−7 M was less than 40% or the value of IC50 was less than 50 nM.)"},
      {"molecule": "CN(C)c1ccnc(N[C@H]2CC[C@@H](CNC(=O)NCc3ccccc3Cl)CC2)n1", "note": "[compound 2421]", "class": "3 (Class 3 The value of percent of control at 10^−7 M was more than 60% or the value of IC50 was more than 200 nM.)"},
      {"molecule": "CCc1ccccc1NC(=O)NC[C@H]1CC[C@@H](Nc2nccc(N(C)C)n2)CC1", "note": "[compound 2423]", "class": "3 (Class 3 The value of percent of control at 10^−7 M was more than 60% or the value of IC50 was more than 200 nM.)"},
      {"molecule": "CN(C)c1ccnc(N[C@H]2CC[C@@H](CNC(=O)Nc3ccccc3I)CC2)n1", "note": "[compound 2424]", "class": "3 (Class 3 The value of percent of control at 10^−7 M was more than 60% or the value of IC50 was more than 200 nM.)"},
      {"molecule": "Cc1cccc(C(C)C)c1NC(=O)NC[C@H]1CC[C@@H](Nc2nccc(N(C)C)n2)CC1", "note": "[compound 2425]", "class": "1 (Class 1: The value of percent of control at 10^−7 M was less than 40% or the value of IC50 was less than 50 nM.)"},
      {"molecule": "CC(C)c1ccccc1NC(=O)NC[C@H]1CC[C@@H](Nc2nccc(N(C)C)n2)CC1", "note": "[compound 2426]", "class": "3 (Class 3 The value of percent of control at 10^−7 M was more than 60% or the value of IC50 was more than 200 nM.)"},
      {"molecule": "Cc1c(NC(=O)NC[C@H]2CC[C@@H](Nc3nccc(N(C)C)n3)CC2)cccc1[N+](=O)[O-]", "note": "[compound 2427, N-[(cis-4-{[4-(dimethylamino)pyrimidin-2-yl]amino}cyclohexyl)methyl]-N′-(2-methyl-3-nitrophenyl)urea]", "class": "1 (Class 1: The value of percent of control at 10^−7 M was less than 40% or the value of IC50 was less than 50 nM.)"},
      {"molecule": "CCCc1ccccc1NC(=O)NC[C@H]1CC[C@@H](Nc2nccc(N(C)C)n2)CC1", "note": "[compound 2428, N-[(cis-4-{[4-(dimethylamino)pyrimidin-2-yl]amino}cyclohexyl)methyl]-N′-(2-propylphenyl)urea]", "class": "2 (Class 2: The value of percent of control at 10^−7 M was from 40% to 60% or the value of IC′50 was from 50 nM to 200 nM.)"},
      {"molecule": "Cc1cccc(C(C)(C)C)c1NC(=O)NC[C@H]1CC[C@@H](Nc2nccc(N(C)C)n2)CC1", "note": "[compound 2429, N-(2-tert-butyl-6-methylphenyl)-N′-[(cis-4-{[4-(dimethylamino)pyrimidin-2-yl]amino}cyclohexyl)methyl]urea]", "class": "1 (Class 1: The value of percent of control at 10^−7 M was less than 40% or the value of IC50 was less than 50 nM.)"},
      {"molecule": "CN(C)c1ccnc(N[C@H]2CC[C@@H](CNC(=O)Nc3ccccc3C(C)(C)C)CC2)n1", "note": "[compound 2430, N-(2-tert-butylphenyl)-N′-[(cis-4-{[4-(dimethylamino)pyrimidin-2-yl]amino}cyclohexyl)methyl]urea]", "class": "1 (Class 1: The value of percent of control at 10^−7 M was less than 40% or the value of IC50 was less than 50 nM.)"},
      {"molecule": "Cc1c(Cl)cccc1NC(=O)NC[C@H]1CC[C@@H](Nc2nccc(N(C)C)n2)CC1", "note": "[compound 2431, N-(3-chloro-2-methylphenyl)-N′-[(cis-4-{[4-(dimethylamino)pyrimidin-2-yl]amino}cyclohexyl)methyl]urea]", "class": "1 (Class 1: The value of percent of control at 10^−7 M was less than 40% or the value of IC50 was less than 50 nM.)"},
      {"molecule": "CN(C)c1ccnc(N[C@H]2CC[C@@H](CNC(=O)Nc3c(F)cc(Br)cc3F)CC2)n1", "note": "[compound 2432]", "class": "1 (Class 1: The value of percent of control at 10^−7 M was less than 40% or the value of IC50 was less than 50 nM.)"},
      {"molecule": "CN(C)c1ccnc(N[C@H]2CC[C@@H](CNC(=O)Nc3ccc(Cl)cc3C(F)(F)F)CC2)n1", "note": "[compound 2433]", "class": "2 (Class 2: The value of percent of control at 10^−7 M was from 40% to 60% or the value of IC′50 was from 50 nM to 200 nM.)"},
      {"molecule": "CN(C)c1ccnc(N[C@H]2CC[C@@H](CNC(=O)Nc3ccc(C#N)cc3)CC2)n1", "note": "[compound 2434]", "class": "3 (Class 3 The value of percent of control at 10^−7 M was more than 60% or the value of IC50 was more than 200 nM.)"},
      {"molecule": "CN(C)c1ccnc(N[C@H]2CC[C@@H](CNC(=O)NC(c3ccccc3)c3ccccc3)CC2)n1", "note": "[compound 2435, N-[(cis-4-{[4-(dimethylamino)pyrimidin-2-yl]amino}cyclohexyl)methyl]-N′-(diphenylmethyl)urea]", "class": "1 (Class 1: The value of percent of control at 10^−7 M was less than 40% or the value of IC50 was less than 50 nM.)"},
      {"molecule": "Cc1cc(Br)cc(C)c1NC(=O)NC[C@H]1CC[C@@H](Nc2nccc(N(C)C)n2)CC1", "note": "[compound 2436, N-(4-bromo-2,6-dimethylphenyl)-N′-[(cis-4-{[4-(dimethylamino)pyrimidin-2-yl]amino}cyclohexyl)methyl]urea]", "class": "1 (Class 1: The value of percent of control at 10^−7 M was less than 40% or the value of IC50 was less than 50 nM.)"},
      {"molecule": "Cc1noc(-c2ccccc2)c1NC(=O)NC[C@H]1CC[C@@H](Nc2nccc(N(C)C)n2)CC1", "note": "[compound 2437]", "class": "1 (Class 1: The value of percent of control at 10^−7 M was less than 40% or the value of IC50 was less than 50 nM.)"},
      {"molecule": "Cc1cc(NC(=O)NC[C@H]2CC[C@@H](Nc3nccc(N(C)C)n3)CC2)c(C(F)(F)F)o1", "note": "[compound 2438]", "class": "3 (Class 3 The value of percent of control at 10^−7 M was more than 60% or the value of IC50 was more than 200 nM.)"},
      {"molecule": "CN(C)c1ccnc(N[C@H]2CC[C@@H](CNC(=O)Nc3cc(Cl)cc(Cl)c3)CC2)n1", "note": "[compound 2439]", "class": "2 (Class 2: The value of percent of control at 10^−7 M was from 40% to 60% or the value of IC′50 was from 50 nM to 200 nM.)"},
      {"molecule": "CN(C)c1ccnc(N[C@H]2CC[C@@H](CNC(=O)Nc3cccc(Cl)c3Cl)CC2)n1", "note": "[compound 2440]", "class": "1 (Class 1: The value of percent of control at 10^−7 M was less than 40% or the value of IC50 was less than 50 nM.)"},
      {"molecule": "Cc1ccc(NC(=O)NC[C@H]2CC[C@@H](Nc3nccc(N(C)C)n3)CC2)cc1", "note": "[compound 2441]", "class": "3 (Class 3 The value of percent of control at 10^−7 M was more than 60% or the value of IC50 was more than 200 nM.)"},
      {"molecule": "CC(C)c1cccc(C(C)C)c1NC(=O)NC[C@H]1CC[C@@H](Nc2nccc(N(C)C)n2)CC1", "note": "[compound 2442]", "class": "1 (Class 1: The value of percent of control at 10^−7 M was less than 40% or the value of IC50 was less than 50 nM.)"},
      {"molecule": "Cc1ccc([N+](=O)[O-])c(NC(=O)NC[C@H]2CC[C@@H](Nc3nccc(N(C)C)n3)CC2)c1C", "note": "[compound 2443]", "class": "1 (Class 1: The value of percent of control at 10^−7 M was less than 40% or the value of IC50 was less than 50 nM.)"},
      {"molecule": "CN(C)c1ccnc(N[C@H]2CC[C@@H](CNC(=O)Nc3c(Br)cc(F)cc3Br)CC2)n1", "note": "[compound 2444, N-(2,6-dibromo-4-fluorophenyl)-N′-[(cis-4-{[4-(dimethylamino)pyrimidin-2-yl]amino}cyclohexyl)methyl]urea]", "class": "1 (Class 1: The value of percent of control at 10^−7 M was less than 40% or the value of IC50 was less than 50 nM.)"},
      {"molecule": "CN(C)c1ccnc(N[C@H]2CC[C@@H](CNC(=O)Nc3c(Cl)cccc3Cl)CC2)n1", "note": "[compound 2445]", "class": "1 (Class 1: The value of percent of control at 10^−7 M was less than 40% or the value of IC50 was less than 50 nM.)"},
      {"molecule": "COc1ccc(C)cc1NC(=O)NC[C@H]1CC[C@@H](Nc2nccc(N(C)C)n2)CC1", "note": "[compound 2446]", "class": "2 (Class 2: The value of percent of control at 10^−7 M was from 40% to 60% or the value of IC′50 was from 50 nM to 200 nM.)"},
      {"molecule": "Cc1cccc([N+](=O)[O-])c1NC(=O)NC[C@H]1CC[C@@H](Nc2nccc(N(C)C)n2)CC1", "note": "[compound 2447, N-[(cis-4-{[4-(dimethylamino)pyrimidin-2-yl]amino}cyclohexyl)methyl]-N′-(2-methyl-6-nitrophenyl)urea]", "class": "2 (Class 2: The value of percent of control at 10^−7 M was from 40% to 60% or the value of IC′50 was from 50 nM to 200 nM.)"},
      {"molecule": "CN(C)c1ccnc(N[C@H]2CC[C@@H](CNC(=O)Nc3ccc(F)c(F)c3)CC2)n1", "note": "[compound 2448]", "class": "1 (Class 1: The value of percent of control at 10^−7 M was less than 40% or the value of IC50 was less than 50 nM.)"},
      {"molecule": "CN(C)c1ccnc(N[C@H]2CC[C@@H](CNC(=O)Nc3cc(F)cc(F)c3)CC2)n1", "note": "[compound 2449]", "class": "1 (Class 1: The value of percent of control at 10^−7 M was less than 40% or the value of IC50 was less than 50 nM.)"},
      {"molecule": "CN(C)c1ccnc(N[C@H]2CC[C@@H](CNC(=O)Nc3ccc(F)c(Cl)c3)CC2)n1", "note": "[compound 2450, N-(3-chloro-4-fluorophenyl)-N′-[(cis-4-{[4-(dimethylamino)pyrimidin-2-yl]amino}cyclohexyl)methyl]urea]", "class": "1 (Class 1: The value of percent of control at 10^−7 M was less than 40% or the value of IC50 was less than 50 nM.)"},
      {"molecule": "CN(C)c1nc(N[C@H]2CC[C@@H](CNC(=O)Nc3ccccc3Cl)CC2)nc2c1CCCC2", "note": "[compound 2451]", "class": "3 (Class 3 The value of percent of control at 10^−7 M was more than 60% or the value of IC50 was more than 200 nM.)"}
    ]}
  ]
}
